# pEC50: −log10 of the molar value.
# Assays:
# TLR8 = molecular target: T1, TLR8 (Homo sapiens, UniProt Q9NR97); assay: TLR8 human peripheral blood mononuclear cell (PBMC) cell-based assay; settings: human PBMCs; 1 h with antagonist, then TLR8 agonist Compound A 800 nM for 6 h; cytokines (TNFa and IL12p40) in supernatant; read-out: TLR-8 EC50
# T1 construct: Human peripheral blood mononuclear cells (PBMCs) consist of lymphocytes, monocytes and dendritic cells that express TLR7, TLR8 and TLR9; endogenous in cells; host or cells: cryopreserved human PBMCs from healthy donors
# T1 sequence (Q9NR97 27-1041): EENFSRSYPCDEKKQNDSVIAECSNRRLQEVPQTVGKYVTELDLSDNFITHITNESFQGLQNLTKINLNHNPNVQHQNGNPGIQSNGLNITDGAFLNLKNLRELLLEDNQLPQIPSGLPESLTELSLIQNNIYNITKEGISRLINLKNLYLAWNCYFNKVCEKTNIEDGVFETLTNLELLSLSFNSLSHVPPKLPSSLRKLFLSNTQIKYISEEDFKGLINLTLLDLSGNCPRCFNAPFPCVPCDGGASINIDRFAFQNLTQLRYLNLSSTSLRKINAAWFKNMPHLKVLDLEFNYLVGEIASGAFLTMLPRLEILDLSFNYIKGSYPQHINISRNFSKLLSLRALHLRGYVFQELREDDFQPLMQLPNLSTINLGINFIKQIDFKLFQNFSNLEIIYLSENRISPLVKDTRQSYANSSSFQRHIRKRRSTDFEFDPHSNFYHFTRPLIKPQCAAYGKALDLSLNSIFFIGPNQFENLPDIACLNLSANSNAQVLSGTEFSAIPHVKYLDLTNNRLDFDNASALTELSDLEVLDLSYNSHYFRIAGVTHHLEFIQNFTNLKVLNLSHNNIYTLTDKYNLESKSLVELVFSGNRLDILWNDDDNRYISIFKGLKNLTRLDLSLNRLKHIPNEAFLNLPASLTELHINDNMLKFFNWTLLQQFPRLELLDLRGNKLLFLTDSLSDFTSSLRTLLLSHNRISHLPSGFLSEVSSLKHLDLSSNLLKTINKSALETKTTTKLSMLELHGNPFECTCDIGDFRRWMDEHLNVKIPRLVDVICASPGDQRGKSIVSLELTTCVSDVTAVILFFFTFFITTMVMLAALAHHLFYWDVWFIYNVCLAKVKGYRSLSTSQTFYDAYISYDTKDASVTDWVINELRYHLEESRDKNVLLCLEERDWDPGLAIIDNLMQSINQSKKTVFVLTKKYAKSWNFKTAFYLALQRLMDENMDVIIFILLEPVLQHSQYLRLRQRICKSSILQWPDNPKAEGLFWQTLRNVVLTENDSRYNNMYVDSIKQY
# Procedure: TLR8 Human Peripheral Blood Mononuclear Cell (PBMC) Cell-Based Assay
# Cryopreserved human PBMCs from healthy donors were thawed and resuspended in RPMI-1640 media with L-glutamine (Corning) supplemented with 10% Fetal Bovine Serum (Hyclone) and 1× Penicillin-Streptomycin (Corning). After counting, the cell density was adjusted to 2 million cells/ml and incubated for 1 hour at 37° C., 5% CO2 for recovery. Following the recovery, the cells were plated by adding 50 μl per well (100,000 cells) to 384-well cell culture plates (Greiner) containing 250 nl of test antagonists in 100% DMSO per well, in a 10 points dose response in quadruplicates. PBMCs were incubated in the presence of antagonists for one hour at 37° C., 5% CO2 before being stimulated with TLR8 agonist. Compound A (Gilead Sciences, U.S. Pat. No. 10,285,990) was used as the TLR8 agonist at a final concentration of 800 nM. PBMCs were incubated in the presence of antagonist and the TLR8 agonist for an additional 6 hours at 37° C., 5% CO2. At the end of the incubation, the cell culture plates were centrifuged at 500 g for 5 min, and the cell culture supernatant was collected. The level of cytokines (TNFa and IL12p40) in the supernatant was measured by electrochemiluminescence immunoassays (Mesoscale Discovery) following manufacturer's recommended protocols. The level of cytokine measured was plotted against the antagonist concentration and fitted to a sigmoidal function to determine the EC50, which are shown below in Table 6.
# TLR7 = molecular target: T2, TLR7 (Homo sapiens, UniProt Q9NYK1); assay: TLR7 human peripheral blood mononuclear cell (PBMC) cell-based assay; settings: human PBMCs; 1 h with test antagonist, then TLR7 agonist GS-986 400 nM for 6 h; cytokines (IL-6 and IFNα) in supernatant; read-out: TLR-7 EC50
# T2 construct: Human peripheral blood mononuclear cells (PBMCs) consist of lymphocytes, monocytes and dendritic cells that express TLR7, TLR8 and TLR9; endogenous in cells; host or cells: cryopreserved human PBMCs from healthy donors
# T2 sequence (Q9NYK1 27-1049): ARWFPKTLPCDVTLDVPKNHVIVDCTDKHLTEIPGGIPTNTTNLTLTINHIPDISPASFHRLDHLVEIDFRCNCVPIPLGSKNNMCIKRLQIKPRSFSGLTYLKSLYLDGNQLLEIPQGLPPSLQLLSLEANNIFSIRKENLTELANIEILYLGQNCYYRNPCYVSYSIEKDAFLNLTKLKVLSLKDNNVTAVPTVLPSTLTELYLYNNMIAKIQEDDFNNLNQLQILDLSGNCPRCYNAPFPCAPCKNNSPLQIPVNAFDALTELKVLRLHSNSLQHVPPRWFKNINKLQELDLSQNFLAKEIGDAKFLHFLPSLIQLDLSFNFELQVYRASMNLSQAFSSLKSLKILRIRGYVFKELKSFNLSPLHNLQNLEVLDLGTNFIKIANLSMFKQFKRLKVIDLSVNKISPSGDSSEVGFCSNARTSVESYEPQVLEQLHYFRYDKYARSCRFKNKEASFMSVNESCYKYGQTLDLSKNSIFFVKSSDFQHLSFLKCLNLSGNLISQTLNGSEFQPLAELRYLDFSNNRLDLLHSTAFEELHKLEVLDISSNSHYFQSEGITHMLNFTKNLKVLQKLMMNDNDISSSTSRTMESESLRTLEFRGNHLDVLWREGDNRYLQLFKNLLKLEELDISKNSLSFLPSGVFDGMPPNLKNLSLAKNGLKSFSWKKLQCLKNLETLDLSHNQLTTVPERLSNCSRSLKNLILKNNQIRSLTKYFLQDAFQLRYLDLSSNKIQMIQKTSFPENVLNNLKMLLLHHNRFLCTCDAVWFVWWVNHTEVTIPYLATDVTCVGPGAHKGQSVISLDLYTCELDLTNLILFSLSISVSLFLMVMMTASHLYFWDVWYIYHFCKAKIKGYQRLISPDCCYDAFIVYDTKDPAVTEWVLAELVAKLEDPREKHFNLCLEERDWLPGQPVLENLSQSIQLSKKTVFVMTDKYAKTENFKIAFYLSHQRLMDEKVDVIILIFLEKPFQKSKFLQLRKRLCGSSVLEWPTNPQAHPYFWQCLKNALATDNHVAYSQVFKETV
# Description: TLR7/9 Human Peripheral Blood Mononuclear Cell (PBMC) Cell-Based Assay
# Human peripheral blood mononuclear cells (PBMCs) consist of lymphocytes, monocytes and dendritic cells that express TLR7, TLR8 and TLR9. These cells respond to TLR7, TLR8 and TLR9 ligand stimulation and produce cytokines and chemokines in vitro and in vivo. Human PBMCs are therefore suitable to be used in a cell-based assay to assess the in vitro potency of a TLR 7, 8, and/or 9 antagonist.
# Cryopreserved human PBMCs from healthy donors were thawed and resuspended in RPMI-1640 media with L-glutamine (Corning) supplemented with 10% Fetal Bovine Serum (Hyclone) and 1× Penicillin-Streptomycin (Corning). After counting, the cell density was adjusted to 2 million cells/ml and incubated for 1 hour at 37° C., 5% CO2 for recovery. Following the recovery, the cells were plated by adding 50 μl per well (100,000 cells) to 384-well cell culture plates (Greiner) containing 250 nl of test antagonists in 100% DMSO per well, in a 10 points dose response in quadruplicates. PBMCs were incubated in the presence of test antagonists for one hour at 37° C., 5% CO2 before being stimulated with a TLR7 or TLR9 agonist. GS-986 (Gilead Sciences) was used as the TLR7 agonist at a final concentration of 400 nM. ODN-2216 (InvivoGen) was used as the TLR9 agonist at a final concentration of 3 μM. PBMCs were incubated in the presence of the test antagonist and the TLR7 (or TLR9) agonist for an additional 6 hours at 37° C., 5% CO2. At the end of the incubation, the cell culture plates were centrifuged at 500 g for 5 min, and the cell culture supernatant was collected. The level of cytokines (IL-6 and IFNα) in the supernatant was measured by electrochemiluminescence immunoassays (Mesoscale Discovery) following manufacturer's recommended protocols. The level of cytokine measured was plotted against the test antagonist concentration and fitted to a sigmoidal function to determine the EC50, which are shown below in Table 6.
Structure (SMILES),pEC50 (TLR8),pEC50 (TLR7)
Cc1c(C2CCN(C(=O)[C@H]3C[C@@H](F)CN3)CC2)sc2[nH]c(-c3cn4ncnc4c4c3CCC4)c(C(C)C)c12 [Example 16],7.90,8.84
"CC(C)c1c(-c2cn3ncnc3c3c2CCC3)[nH]c2sc(C(=O)N(C)C3CCNCC3)cc12 [Example 41, 5-(8,9-dihydro-7H-cyclopenta[c][1,2,4]triazolo[1,5-a]pyridin-6-yl)-4-isopropyl-N-methyl-N-(piperidin-4-yl)-6H-thieno[2,3-b]pyrrole-2-carboxamide]",8.59,9.31
"Cc1c(C2CCNCC2)sc2[nH]c(-c3cn4ncnc4c4c3CCC4)c(C(C)C)c12 [Example 1, 5-(8,9-dihydro-7H-cyclopenta[c][1,2,4]triazolo[1,5-a]pyridin-6-yl)-4-isopropyl-3-methyl-2-(piperidin-4-yl)-6H-thieno[2,3-b]pyrrole]",8.72,9.96
"Cc1c(C2CCN(C(=O)[C@H]3COCCN3)CC2)sc2[nH]c(-c3cn4ncnc4c4c3CCC4)c(C(C)C)c12 [Example 14, (R)-(4-(5-(8,9-dihydro-7H-cyclopenta[c][1,2,4]triazolo[1,5-a]pyridin-6-yl)-4-isopropyl-3-methyl-6H-thieno[2,3-b]pyrrol-2-yl)piperidin-1-yl)(morpholin-3-yl)methanone]",8.31,9.24
Cc1nc2c3c(c(-c4[nH]c5sc(C6CCN(CC(N)=O)CC6)c(C)c5c4C(C)C)cn2n1)CCC3 [Example 50],7.46,9.11
CC(C)c1c(-c2cn3ncnc3c3c2CCC3)[nH]c2sc(C(=O)N3CCNCC3)cc12 [Example 42],9.16,9.11
Cc1nc2c3c(c(-c4[nH]c5sc(C6CCN(CC(N)=O)CC6)c(C)c5c4C(C)C)cn2n1)COC3 [Example 44],6.87,8.39
Cc1c([C@@H]2C[C@@H]3C[C@H]2CN3CC(N)=O)sc2[nH]c(-c3cn4ncnc4c4c3CCO4)c(C(C)C)c12 [Example 38],9.09,9.24
"Cc1c(C2CCN(CC3(C)COC3)CC2)sc2[nH]c(-c3cn4ncnc4c4c3CCC4)c(C(C)C)c12 [Example 12, 5-(8,9-dihydro-7H-cyclopenta[c][1,2,4]triazolo[1,5-a]pyridin-6-yl)-4-isopropyl-3-methyl-2-(1-((3-methyloxetan-3-yl)methyl)piperidin-4-yl)-6H-thieno[2,3-b]pyrrole]",8.32,8.22
Cc1c(-c2ccc(N3CCNCC3)nc2)sc2[nH]c(-c3cn4ncnc4c4c3CCC4)c(C(C)C)c12 [Example 22],9.18,9.64
CO[C@H]1CN[C@@H](C(=O)N2CCC(c3sc4[nH]c(-c5cn6ncnc6c6c5CCC6)c(C(C)C)c4c3C)CC2)C1 [Example 18],8.35,9.36
CO[C@@H]1CN[C@@H](C(=O)N2CCC(c3sc4[nH]c(-c5cn6ncnc6c6c5CCC6)c(C(C)C)c4c3C)CC2)C1 [Example 19],8.27,9.85
Cc1c(C2CCN(C(=O)C3(N4CCOCC4)CC3)CC2)sc2[nH]c(-c3cn4ncnc4c4c3CCC4)c(C(C)C)c12 [Example 20],7.65,8.33
"Cc1c(C2CCN(CC(N)=O)CC2)sc2[nH]c(-c3cn4ncnc4c4c3CCC4)c(C(C)C)c12 [Example 6, 2-(4-(5-(8,9-dihydro-7H-cyclopenta[c][1,2,4]triazolo[1,5-a]pyridin-6-yl)-4-isopropyl-3-methyl-6H-thieno[2,3-b]pyrrol-2-yl)piperidin-1-yl)acetamide]",8.51,9.46
Cc1c(C2CCC(N3CC4(COC4)C3)CC2)sc2[nH]c(-c3cn4ncnc4c4c3CCC4)c(C(C)C)c12 (stereo not drawn) [Example 29],9.00,10.00
Cc1c(C2CCN(C(=O)[C@H]3C[C@H](F)CN3)CC2)sc2[nH]c(-c3cn4ncnc4c4c3CCC4)c(C(C)C)c12 [Example 17],7.82,9.17
Cc1c([C@@H]2C[C@H]3CC[C@@H](C2)N3CC(N)=O)sc2[nH]c(-c3cn4ncnc4c4c3COC4)c(C(C)C)c12 [Example 49],7.82,9.39
Cc1c(C2CCN(C(=O)[C@@H]3C[C@H](C(F)(F)F)CN3)CC2)sc2[nH]c(-c3cn4ncnc4c4c3CCC4)c(C(C)C)c12 [Example 39],8.30,8.47

# Reference: patent publication US12070455B2, “Thienopyrrole compounds” (Gilead Sciences, Inc., priority 2021, dated 2024)
